Measurements as given in ChEMBL document CHEMBL1201862, “PubChem BioAssay data set” (2004).
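Results reflect a 48-hour exposure of cells in 96-well plates to compound at five concentrations. GI50 is the concentration that inhibits growth by half.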 Activity calls are given as the source filed them. Cut-off read from the data, not from the text of the source: active = GI50 up to about 1.1 µM and inactive = higher.

Tests used:
Experiment in all cases: growth of human tumour cells (NCI), 48 h
786-0 = tested on: 786-0
A498 = tested on: A498
A549 = tested on: A549
ACHN = tested on: ACHN
BT-549 = tested on: BT-549
CAKI-1 = tested on: CAKI-1
CCRF-CEM = tested on: CCRF-CEM
COLO 205 = tested on: COLO 205
DU-145 = tested on: DU-145
EKVX = tested on: EKVX
HCC 2998 = tested on: HCC 2998
HCT-116 = tested on: HCT-116
HCT-15 = tested on: HCT-15
HL-60 = tested on: HL-60
HOP-62 = tested on: HOP-62
HOP-92 = tested on: HOP-92
HT-29 = tested on: HT-29
Hs-578T = tested on: Hs-578T
IGROV-1 = tested on: IGROV-1
K562 = tested on: K562
KM12 = tested on: KM12
LOX IMVI = tested on: LOX IMVI
M14 = tested on: M14
MCF7 = tested on: MCF7
MDA-MB-231 = tested on: MDA-MB-231
MDA-MB-435 = tested on: MDA-MB-435
MDA-N = tested on: MDA-N
MOLT-4 = tested on: MOLT-4
Malme-3M = tested on: Malme-3M
NCI-H226 = tested on: NCI-H226
NCI-H23 = tested on: NCI-H23
NCI-H460 = tested on: NCI-H460
NCI-H522 = tested on: NCI-H522
NCI/ADR-RES = tested on: NCI/ADR-RES
OVCAR-3 = tested on: OVCAR-3
OVCAR-4 = tested on: OVCAR-4
OVCAR-5 = tested on: OVCAR-5
OVCAR-8 = tested on: OVCAR-8
PC-3 = tested on: PC-3
RPMI-8226 = tested on: RPMI-8226
RXF 393 = tested on: RXF 393
SF-268 = tested on: SF-268
SF-295 = tested on: SF-295
SF-539 = tested on: SF-539
SK-MEL-28 = tested on: SK-MEL-28
SK-MEL-2 = tested on: SK-MEL-2
SK-MEL-5 = tested on: SK-MEL-5
SK-OV-3 = tested on: SK-OV-3
SN12C = tested on: SN12C
SNB-19 = tested on: SNB-19
SNB-75 = tested on: SNB-75
SR = tested on: SR
SW-620 = tested on: SW-620
T47D = tested on: T47D
TK-10 = tested on: TK-10
U-251 = tested on: U-251
UACC-257 = tested on: UACC-257
UACC-62 = tested on: UACC-62
UO-31 = tested on: UO-31

With `O=[N+]([O-])c1ccc(-[n+]2ccc3ccccc3c2)c([N+](=O)[O-])c1` the GI50 (786-0) was 1.73 µM (inactive), the GI50 (A498) was 14.8 µM (inactive) and the GI50 (A549) was 16.4 µM (inactive). The GI50 (ACHN) was 2.02 µM (inactive), the GI50 (BT-549) was 4.83 µM (inactive) and the GI50 (CAKI-1) was 4.14 µM (inactive). The GI50 (CCRF-CEM) was 1.54 µM (inactive), the GI50 (COLO 205) was 2.55 µM (inactive) and the GI50 (DU-145) was 14.6 µM (inactive). The GI50 (EKVX) was 6.73 µM (inactive), the GI50 (HCC 2998) was 13.7 µM (inactive) and the GI50 (HCT-116) was 2.35 µM (inactive). The GI50 (HCT-15) was 1860 nM, the GI50 (HL-60) was 1.54 µM (inactive) and the GI50 (HOP-62) was 8.18 µM (inactive). The GI50 (HOP-92) was 2.48 µM (inactive), the GI50 (HT-29) was 2.33 µM (inactive) and the GI50 (Hs-578T) was 7.6 µM (inactive). For the same compound, the GI50 (IGROV-1) was 3.1 µM (inactive), the GI50 (K562) was 1.55 µM (inactive) and the GI50 (KM12) was 12.3 µM (inactive). The GI50 (LOX IMVI) was 1.95 µM (inactive), the GI50 (M14) was 4.55 µM (inactive) and the GI50 (MCF7) was 1.88 µM (inactive). For the same compound, the GI50 (MDA-MB-231) was 3.62 µM (inactive), the GI50 (MDA-MB-435) was 2.5 µM (inactive) and the GI50 (MDA-N) was 2.33 µM (inactive). For the same compound, the GI50 (MOLT-4) was 2.83 µM (inactive), the GI50 (Malme-3M) was 3.94 µM (inactive) and the GI50 (NCI-H226) was 16.2 µM (inactive). For the same compound, the GI50 (NCI-H23) was 2.43 µM (inactive), the GI50 (NCI-H460) was 10.9 µM (inactive) and the GI50 (NCI-H522) was 2.1 µM (inactive). The GI50 (NCI/ADR-RES) was 3.28 µM (inactive), the GI50 (OVCAR-3) was 2.55 µM (inactive) and the GI50 (OVCAR-4) was 1.56 µM (inactive). The GI50 (OVCAR-5) was 11.7 µM (inactive), the GI50 (OVCAR-8) was 2.47 µM (inactive) and the GI50 (PC-3) was 3.93 µM (inactive). The GI50 (RPMI-8226) was 2.32 µM (inactive), the GI50 (RXF 393) was 1.92 µM (inactive) and the GI50 (SF-268) was 3.12 µM (inactive). For the same compound, the GI50 (SF-295) was 14.8 µM (inactive), the GI50 (SF-539) was 5.21 µM (inactive) and the GI50 (SK-MEL-28) was 2.83 µM (inactive). For the same compound, the GI50 (SK-MEL-2) was 11.1 µM (inactive), the GI50 (SK-MEL-5) was 2.64 µM (inactive) and the GI50 (SK-OV-3) was 14.1 µM (inactive). The GI50 (SN12C) was 2.69 µM (inactive), the GI50 (SNB-19) was 18.1 µM (inactive) and the GI50 (SNB-75) was 3.14 µM (inactive). The GI50 (SR) was 3.42 µM (inactive), the GI50 (SW-620) was 1.95 µM (inactive) and the GI50 (T47D) was 2.01 µM (inactive). The GI50 (TK-10) was 1.85 µM (inactive), the GI50 (U-251) was 5.68 µM (inactive) and the GI50 (UACC-257) was 1.81 µM (inactive). The GI50 (UACC-62) was 2.28 µM (inactive) and the GI50 (UO-31) was 5.02 µM (inactive).
